From patent US9328122B2, “7-substituted Hanfangichin B derivative, and preparation method and use thereof” (HANGZHOU BENSHENG PHARMACEUTICAL CO., LTD., priority 2012, dated 2016)
In brackets after ≈: the same amount, converted by molar mass.

Columns and labels:
[1] = tested on: NB4 (acute promyelocytic leukemia) cells; test: MTT cell growth inhibition, leukemia cells; assay type: cell-based; conditions: Homo sapiens, NB4, 72 h, MTT; for IC50: read-out: IC50; for IC90: read-out: IC90
Method in brief: (§1)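 MTT read-out of viable cells after 72 h compound exposure at 37° C., 5% CO2; 6000 cells/well in RPMI-1640 + 10% FBS, dosed one day after seeding over a range of concentrations.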

[2] = tested on: K562/ADR (K562adr, drug-resistant chronic myeloid leukemia) cells; test: MTT cell growth inhibition, leukemia cells; assay type: cell-based; conditions: Homo sapiens, K562/ADR, 72 h, MTT; for IC50: read-out: IC50; for IC90: read-out: IC90
Method in brief: as §1

[3] = tested on: Jurkat (acute lymphoblastic leukemia) cells; test: MTT cell growth inhibition, leukemia cells; assay type: cell-based, human; conditions: for IC50 / IC90: Homo sapiens, Jurkat, 72 h, MTT; for IC50: read-out: IC50; for IC90: read-out: IC90
Method in brief: as §1

[4] = tested on: Kasumi-1 (acute myeloid leukemia M2 type) cells; test: MTT cell growth inhibition, leukemia cells; assay type: cell-based, human; conditions: for IC50 / IC90: Homo sapiens, Kasumi-1, 72 h, MTT; for IC50: read-out: IC50; for IC90: read-out: IC90
Method in brief: as §1

[5] = tested on: H9 (acute lymphoblastic leukemia) cells; test: MTT cell growth inhibition, leukemia cells; assay type: cell-based, human; conditions: for IC50 / IC90: Homo sapiens, H9, 72 h, MTT; for IC50: read-out: IC50; for IC90: read-out: IC90
Method in brief: as §1

[6] = tested on: RPMI 8226 (multiple myeloma) cells; test: MTT cell growth inhibition, multiple myeloma cells; assay type: cell-based, human; conditions: Homo sapiens, RPMI 8226, 72 h, MTT; for IC50: read-out: IC50; for IC90: read-out: IC90
Method in brief: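 Viable-cell readout by MTT after 72 h exposure (37° C, 5% CO2) of RPMI 8226 cells to a range of compound concentrations, added one day post-seeding. Cells were seeded at 6000 per well in RPMI-1640 containing 10% FBS.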

tumor = test: Antitumor activity compared with fangchinoline, overall statement; assay type: cell-based; conditions: tumor type not specified
[7] = tested on: A549 (human lung cancer) cells; test: MTT cell growth inhibition, solid tumor cells; assay type: cell-based; conditions: for IC50 / IC90: Homo sapiens, A549, 72 h, MTT; for IC50: read-out: IC50; for IC90: read-out: IC90
Method in brief: (§2)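 Seeding: 6000 cells/well, DMEM high glucose + 10% FBS, 24 h, 37 °C/5% CO2. Compound at graded concentrations, 72 h. Readout MTT (viable cells).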

[8] = tested on: MG-63 (osteosarcoma) cells; test: MTT cell growth inhibition, solid tumor cells; assay type: cell-based; conditions: Homo sapiens, MG-63, 72 h, MTT; for IC50: read-out: IC50; for IC90: read-out: IC90
Method in brief: as §2

[9] = tested on: RKO (human colon adenocarcinoma) cells; test: MTT cell growth inhibition, solid tumor cells; assay type: cell-based; conditions: Homo sapiens, RKO, 72 h, MTT; for IC50: read-out: IC50; for IC90: read-out: IC90
Method in brief: as §2

[10] = tested on: U87-MG (malignant glioma) cells; test: MTT cell growth inhibition, solid tumor cells; assay type: cell-based; conditions: Homo sapiens, U-87 MG, U87-MG, 72 h, MTT; for IC50: read-out: IC50; for IC90: read-out: IC90
Method in brief: as §2

[11] = tested on: Hep-2 (laryngeal carcinoma) cells; test: MTT cell growth inhibition, solid tumor cells; assay type: cell-based; conditions: Homo sapiens, Hep-2, 72 h, MTT; for IC50: read-out: IC50; for IC90: read-out: IC90
Method in brief: as §2

[12] = tested on: Hep G2 (human liver cancer) cells; test: MTT cell growth inhibition, solid tumor cells; assay type: cell-based; conditions: Homo sapiens, HepG2, Hep G2, 72 h, MTT; for IC50: read-out: IC50; for IC90: read-out: IC90
Method in brief: as §2

[13] = tested on: CaEs-17 (esophageal cancer) cells; test: MTT cell growth inhibition, solid tumor cells; assay type: cell-based, human; conditions: Homo sapiens, CaEs17, CaEs-17, 72 h, MTT; for IC50: read-out: IC50; for IC90: read-out: IC90
Method in brief: as §2

[14] = tested on: PC-3 (prostate cancer) cells; test: MTT cell growth inhibition, solid tumor cells; assay type: cell-based, human; conditions: Homo sapiens, PC-3, 72 h, MTT; for IC50: read-out: IC50; for IC90: read-out: IC90
Method in brief: as §2

[15] = tested on: CNE (nasopharyngeal carcinoma) cells; test: MTT cell growth inhibition, solid tumor cells; assay type: cell-based, human; conditions: Homo sapiens, CNE, 72 h, MTT; for IC50: read-out: IC50; for IC90: read-out: IC90
Method in brief: as §2

[16] = tested on: PANC-1 (pancreatic cancer) cells; test: MTT cell growth inhibition, solid tumor cells; assay type: cell-based, human; conditions: Homo sapiens, PANC-1, 72 h, MTT; for IC50: read-out: IC50; for IC90: read-out: IC90
Method in brief: as §2

[17] = tested on: SK-OV-3 (ovarian cancer) cells; test: MTT cell growth inhibition, solid tumor cells; assay type: cell-based, human; conditions: Homo sapiens, SK-OV-3, 72 h, MTT; for IC50: read-out: IC50; for IC90: read-out: IC90
Method in brief: as §2

[18] = relative to fangchinoline, Table 1

Row | Structure (SMILES) | IC50 [1] [µg/mL] | IC90 [1] [µg/mL] | IC50 [2] [µg/mL] | IC90 [2] [µg/mL] | IC50 [3] [µg/mL] | IC90 [3] [µg/mL] | IC50 [4] [µg/mL] | IC90 [4] [µg/mL] | IC50 [5] [µg/mL] | IC90 [5] [µg/mL] | IC50 [6] [µg/mL] | IC90 [6] [µg/mL] | antitumor activity compared with that of fangchinoline (tumor) | IC50 [7] [µg/mL] | IC90 [7] [µg/mL] | IC50 [8] [µg/mL] | IC90 [8] [µg/mL] | IC50 [9] [µg/mL] | IC90 [9] [µg/mL] | IC50 [10] [µg/mL] | also measured
1 | COc1ccc2cc1Oc1ccc(cc1)C[C@H]1c3cc(c(OC)cc3CCN1C)Oc1c(OC(=O)c3ccc(N(C)C)cc3)c(OC)cc3c1[C@H](C2)N(C)CC3 [BS-FC-308] | 0.37 (≈ 0.489 µM) | 0.98 (≈ 1.3 µM) | 0.08 (≈ 0.106 µM) | 0.47 (≈ 0.622 µM) | 0.36 (≈ 0.476 µM) | 1.62 (≈ 2.14 µM) | 0.81 (≈ 1.07 µM) | 1.9 (≈ 2.51 µM) | 0.7 (≈ 0.926 µM) | 1.8 (≈ 2.38 µM) | 0.12 (≈ 0.159 µM) | 0.25 (≈ 0.331 µM) | significantly superior | 0.99 (≈ 1.31 µM) | 3.16 (≈ 4.18 µM) | 1.3 (≈ 1.72 µM) | 1.8 (≈ 2.38 µM) | 0.71 (≈ 0.939 µM) | 1.51 (≈ 2 µM) | 1.27 (≈ 1.68 µM) | anti-Jurkat activity increase over fangchinoline [3, 18]: more than 4 fold; anti-H9 activity increase over fangchinoline [5, 18]: > 3 fold; anti-A549 activity increase over fangchinoline ([7]; relative to fangchinoline, Table 2): more than 3 fold; IC90 [10]: 3.75 µg/mL (≈ 4.96 µM); IC50 [11]: 3.08 µg/mL (≈ 4.07 µM); IC90 [11]: 6.05 µg/mL (≈ 8 µM); IC50 [12]: 1.12 µg/mL (≈ 1.48 µM); IC90 [12]: 4.35 µg/mL (≈ 5.75 µM); IC50 [13]: 0.93 µg/mL (≈ 1.23 µM); IC90 [13]: 3.92 µg/mL (≈ 5.19 µM); IC50 [14]: 2.4 µg/mL (≈ 3.17 µM); IC90 [14]: 3.49 µg/mL (≈ 4.62 µM); IC50 [15]: 1.9 µg/mL (≈ 2.51 µM); IC90 [15]: 3.6 µg/mL (≈ 4.76 µM); IC50 [16]: 2.38 µg/mL (≈ 3.15 µM); IC90 [16]: 8.53 µg/mL (≈ 11.3 µM); IC50 [17]: 1.31 µg/mL (≈ 1.73 µM); IC90 [17]: 1.93 µg/mL (≈ 2.55 µM)
2 | COc1cc(OC)cc(C(=O)Oc2c(OC)cc3c4c2Oc2cc5c(cc2OC)CCN(C)[C@H]5Cc2ccc(cc2)Oc2cc(ccc2OC)C[C@@H]4N(C)CC3)c1 [BS-FC-311] | 0.22 (≈ 0.285 µM) | 0.96 (≈ 1.24 µM) | 0.48 (≈ 0.621 µM) | 2.83 (≈ 3.66 µM) | 0.51 (≈ 0.66 µM) | 0.98 (≈ 1.27 µM) | 0.57 (≈ 0.737 µM) | 1.85 (≈ 2.39 µM) | 1.2 (≈ 1.55 µM) | 2 (≈ 2.59 µM) | 0.13 (≈ 0.168 µM) | 0.49 (≈ 0.634 µM) | significantly superior | 1.36 (≈ 1.76 µM) | 4.38 (≈ 5.67 µM) | 2 (≈ 2.59 µM) | 4.37 (≈ 5.65 µM) | 1.32 (≈ 1.71 µM) | 3.24 (≈ 4.19 µM) | 1.25 (≈ 1.62 µM) | anti-Kasumi-1 activity increase over fangchinoline [4, 18]: ~2 fold; IC90 [10]: 3.8 µg/mL (≈ 4.92 µM); IC50 [11]: 1.64 µg/mL (≈ 2.12 µM); IC90 [11]: 4.85 µg/mL (≈ 6.28 µM); IC50 [12]: 1.4 µg/mL (≈ 1.81 µM); IC90 [12]: 2.76 µg/mL (≈ 3.57 µM); IC50 [13]: 1.95 µg/mL (≈ 2.52 µM); IC90 [13]: 7.37 µg/mL (≈ 9.54 µM); IC50 [14]: 3.08 µg/mL (≈ 3.99 µM); IC90 [14]: 8.39 µg/mL (≈ 10.9 µM); IC50 [15]: 1.83 µg/mL (≈ 2.37 µM); IC90 [15]: 5.04 µg/mL (≈ 6.52 µM); IC50 [16]: 2.95 µg/mL (≈ 3.82 µM); IC90 [16]: 4.8 µg/mL (≈ 6.21 µM); IC50 [17]: 2.87 µg/mL (≈ 3.71 µM); IC90 [17]: 3.96 µg/mL (≈ 5.12 µM)
